Columns and labels:
[1] = system: acute stage myocardial infarction mouse model; test: Cardiac function by echocardiography in myocardial infarction model; type: in vivo
Procedure: (§1) Bone marrow cells were collected from the thigh bone/lower leg bone of three-week-old mice (C57BL6-CAG-GFP transgenic mice), and the bone marrow cell suspension was administered ([…]) to the tail vein of six-week-old mice (C57BL6) after irradiation (10GY) to produce bone marrow chimeric mice. Sixty days after bone marrow transplantation, left fourth interspace thoracotomy was performed under general anesthesia in the supine position, and the proximal left anterior descending coronary artery was ligated to produce an extensive myocardial infarction model (left anterior descending coronary artery/circumflex occlusion model). In making the HMGB1 protein low molecular, a fragment peptide (1-44) of the HMGB1 protein was developed in consideration of retaining the activity of recruiting bone marrow mesenchymal stem cells. At 6, 24, 48, 72, and 96 hours after infarction creation, the HMGB1 protein fragment peptide (1-44) (5 μg/300 μl), or 300 μl of PBS (negative control group) was administered five times to the tail vain. Mice were euthanized by administration of excess ketamine and xylazine, and their hearts were collected. After the tissues were embedded in OCT compound, cryosections of 5 μm thickness were prepared. […] Regarding the number of bone marrow-derived mesenchymal stem cells accumulated in the tissue, the number of cells positive for both GFP and PDGFRα present in all areas of randomly-selected 5 sections were determined and the mean value was calculated. […] Real-time PCR was performed with the Gene Amp(R) PCR System 9700 (Life Technologies Japan) using the above-mentioned cDNA as a template, and the levels of TNFα and IL-1β mRNA were determined as a ratio to the GAPDH mRNA level. Improvement in the cardiac function was evaluated by measuring the left ventricular end-diastolic diameter (LVDd: Dd), left ventricular end-systolic diameter (LVDs: Ds), and left ventricular ejection fraction (LVEF: EF) using the Vivid 7 Echocardiography System and 12-MHZ Transducer (General Electric).

[2] = system: PDGFRα-positive bone marrow mesenchymal stem cells; test: Recruitment of PDGFRα-positive bone marrow-derived mesenchymal stem cells to myocardium in myocardial infarction model (GFP/PDGFRα immunofluorescence); type: in vivo, mouse; details: N=4, P<0.05
Procedure: as §1, with “cells.” for “cells. At 6, 24, 48, 72, and 96 hours after infarction creation, the HMGB1 protein fragment peptide (1-44) (5 μg/300 μl), or 300 μl of PBS (negative control group) was administered five times to the tail vain. Mice were euthanized by administration of excess ketamine and xylazine, and their hearts were collected. After the tissues were embedded in OCT compound, cryosections of 5 μm thickness were prepared.”, “Improvement in the cardiac function was evaluated by measuring the left ventricular end-diastolic diameter (LVDd: Dd), left ventricular end-systolic diameter (LVDs: Ds), and left ventricular ejection fraction (LVEF: EF) using the Vivid 7 Echocardiography System and 12-MHZ Transducer (General Electric).” left out

TNFα mRNA = TNFα mRNA level in myocardial tissue of myocardial infarction model (real-time PCR); type: in vivo, mouse; details: ratio to GAPDH mRNA level; N=4; negative control 11±3; P<0.05; day not stated in text (FIG. 1C: 7 and 56 days)
Procedure: as §1, with “cells.” for “cells. At 6, 24, 48, 72, and 96 hours after infarction creation, the HMGB1 protein fragment peptide (1-44) (5 μg/300 μl), or 300 μl of PBS (negative control group) was administered five times to the tail vain. Mice were euthanized by administration of excess ketamine and xylazine, and their hearts were collected. After the tissues were embedded in OCT compound, cryosections of 5 μm thickness were prepared.”, “Improvement in the cardiac function was evaluated by measuring the left ventricular end-diastolic diameter (LVDd: Dd), left ventricular end-systolic diameter (LVDs: Ds), and left ventricular ejection fraction (LVEF: EF) using the Vivid 7 Echocardiography System and 12-MHZ Transducer (General Electric).” left out

IL-1β mRNA = IL-1β mRNA level in myocardial tissue of myocardial infarction model (real-time PCR); type: in vivo, mouse; details: ratio to GAPDH mRNA level; N=4; negative control 6±1; P<0.05; day not stated in text (FIG. 1D: 7 and 56 days)
Procedure: as §1, with “cells.” for “cells. At 6, 24, 48, 72, and 96 hours after infarction creation, the HMGB1 protein fragment peptide (1-44) (5 μg/300 μl), or 300 μl of PBS (negative control group) was administered five times to the tail vain. Mice were euthanized by administration of excess ketamine and xylazine, and their hearts were collected. After the tissues were embedded in OCT compound, cryosections of 5 μm thickness were prepared.”, “Improvement in the cardiac function was evaluated by measuring the left ventricular end-diastolic diameter (LVDd: Dd), left ventricular end-systolic diameter (LVDs: Ds), and left ventricular ejection fraction (LVEF: EF) using the Vivid 7 Echocardiography System and 12-MHZ Transducer (General Electric).” left out

Which “left ventricular end-diastolic diameter (DD)” value ([1]; Day 56 after infarction, N=8, negative control (N=16) 6.3±0.2, P<0.05) does the source give for “HMGB1 protein fragment peptide (1-44): peptide consisting of amino acids at positions 1 to 44 of an HMGB1 protein (SEQ ID NO: 3), produced by peptide synthesis (MGKGDPKKPRGKMSSYAFFVQTCREEHKKKHPDASVNFSEFSKK; Synthesized peptide from an HMGB1 protein)” here?
The value was 5.8±0.2 mm.

What about the “left ventricular ejection fraction (EF)” value ([1]; Day 56 after infarction, N=8, negative control (N=16) 20±4, P<0.05) of the same substance?
The value was 26±4%.

And the “aggravation of left ventricular systolic function, left ventricular enlargement, and left ventricular remodeling” value ([1]; myocardial infarction model, five-day administration)?
Its value is “significantly suppressed”.

What about the “number of PDGFRα-positive bone marrow-derived mesenchymal cells, non-infarction site” value ([2]; day 7 post infarction creation, 5 μg/300 μl tail vein x5 (6, 24, 48, 72, 96 h), negative control 32±9) of the same substance?
Its value is 52±11 cells/mm^2.

What about the “recruitment of PDGFRα-positive bone marrow mesenchymal stem cells in all areas (infarction, border, non-infarction sites) vs. negative control” value ([2]; seven days after creating myocardial infarction) of the same substance?
Its value is “significantly recruited”.

And the “TNFα mRNA level, non-infarction site” value (TNFα mRNA)?
The value was 4±2 GAPDH.

What about the “IL-1β mRNA level, non-infarction site” value (IL-1β mRNA) of the same substance?
Its value is 2±1 GAPDH.

Source: US9623078B2, “Method for treating cardiac infarction using HMGB1 fragment” (GENOMIX CO., LTD, priority 2012, dated 2017)
